Patent US10131679B2, “Substituted dihydropyrrolopyrazole compound” (UBE INDUSTRIES, LTD., priority 2014, dated 2018)

What was measured:
[1] = system: IL-17 production in human PBMC-derived T cells; assay: Human PBMC various-stimulant cocktail-induced IL-17 production inhibition test; type: cell-based; conditions: 120 h; human T-cell suspension from PBMC, cocktail of various stimulants, incubation for 5 days, ELISA
Excerpt: Human PBMC Various-Stimulant Cocktail-Induced IL-17 Production Inhibition Test
PBMC was separated and collected by using Ficoll-Paque (17-1440-02 manufactured by GE Healthcare Japan Corp.) from blood collected from healthy human adult in the presence of heparin. The collected PBMC was further cultured in a flask for a certain time, and then, non-adherent cells in the supernatant were collected and used as a T-cell suspension. RPMI1640 medium (manufactured by GIBCO/Thermo Fisher Scientific, Inc., REF. 11875), which is containing 10% FBS (manufactured by GIBCO/Thermo Fisher Scientific, Inc., REF. 10082), 1% penicillin/streptomycin/amphotericin B (manufactured by GIBCO/Thermo Fisher Scientific, Inc., REF. 15240-096), 1% nonessential amino acids (manufactured by GIBCO/Thermo Fisher Scientific, Inc., REF. 11140-050), and 1% pyruvic acid (manufactured by GIBCO/Thermo Fisher Scientific, Inc., REF. 11140) and containing a test compound dissolved in DMSO, 2 μg/mL (final concentration) CD28 antibody (manufactured by BioLegend, Inc., Cat. No. 302914), 10 μg/mL (final concentration) human IFN-γ antibody (manufactured by BD Biosciences, Cat. No. 554698), 10 μg/mL (final concentration) human IL-4 antibody (manufactured by BD Biosciences, Cat. No. 554481), 20 ng/mL (final concentration) human IL-6 (manufactured by BioLegend, Inc., Cat. No. 570802), 10 ng/mL (final concentration) human IL-23 (manufactured by BioLegend, Inc., Cat. No. 574102), 10 ng/mL (final concentration) human IL-1(3 (manufactured by PeproTech Inc., Cat. No. 200-01B), and 10 ng/mL (final concentration) human TGF-13 (manufactured by BioLegend, Inc., Cat. No. 580702), was added at 100 μL/well to T cell Activation Plate Anti-Human CD3 96-well plate (manufactured by Corning Inc., REF. 354725). Subsequently, 100 μL of a T-cell suspension adjusted to 2×10^5 cells/mL was added to each well (final DMSO concentration: 0.1%). Only DMSO was added to wells in the absence of the test compound. After incubation for 5 days in a carbon dioxide incubator, the culture supernatant was collected and stored at −20° C. until IL-17 content measurement.
In the IL-17 content measurement in the culture supernatant, a sandwich ELISA kit (Quantikine Human IL-17, manufactured by R&D Systems, Inc.) was used. The IL-17 content of each sample was calculated from the calibration curve of Standard IL-17 included in the kit. When the amount of IL-17 produced by the cocktail of various stimulants in the case of the addition of only DMSO was defined as 100%, the rate of inhibition of IL-17 production at each concentration of the test compound was calculated. The concentration of the test compound necessary for inhibiting 50% of IL-17 production (IC50 value) was calculated from the concentration of the added test compound and the rate of inhibition of IL-17 production by the test compound by using EXSUS (version 8.0.0 or version 8.0.1, manufactured by CAC Exicare Corp.).

CDK2 = molecular target: T1, CDK2 (Homo sapiens, UniProt P24941); assay: CDK2 enzyme inhibition test; type: biochemical; conditions: Ki=IC50/(1+S/Km); 33P bound to MBP, [γ-33P]ATP, 30° C. for 20 minutes; read-out: Ki value of CDK2 inhibitory activity
T1 construct: purchased Invitrogen Corp. PV3267
Procedure, shortened: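 Commercial CDK2 with MBP substrate and [γ-33P]ATP (500 μM solution, before mixing) in HEPES pH 7.4 buffer with DTT, Triton X-100 and MgCl2; 20 min at 30 °C. TCA-precipitated 33P-MBP counted by liquid scintillation; IC50 from inhibition of 33P incorporation, Ki = IC50/(1+S/Km).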

[2] = system: mouse imiquimod-induced psoriasis model; assay: Ear thickening suppression test using mouse imiquimod-induced psoriasis model; type: in vivo; conditions: topical, 120 h, application of a 0.01% methanol solution for 4 days, thickness measured on day 5, BALB/c mice, read-out: rate of inhibition of increase in right auricle thickness
Procedure, shortened: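 Female BALB/c mice received test compound topically or orally, then 5 mg imiquimod cream (5%) on the right auricle 60 minutes later, daily for 4 days. Ear thickness was measured on day 5. Inhibition (%) of thickening was calculated relative to the solvent group, taken as 100%.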

Row | Ki (CDK2) | Structure (SMILES) | IC50 [1] | inhibition in vivo at 0.01 % [2]
1 | ≥ 1 µM | CCCO[C@@H](C(=O)N1Cc2c(NC(=O)C3([Si](C)(C)C)CCC3)n[nH]c2C1(C)C)c1ccccc1 [IV-1196, (R)—N-[6,6-Dimethyl-5-(2-phenyl-2-propoxyacetyl)-1,4,5,6-tetrahydropyrrolo[3,4-c]pyrazol-3-yl]-1-(trimethylsilyl)cyclobutanecarboxamide] | ≤ 0.05 µM | ≥ 50%
2 | ≥ 1 µM | CC(C)O[C@@H](C(=O)N1Cc2c(NC(=O)C3([Si](C)(C)C)CCC3)n[nH]c2C1(C)C)c1ccccc1 [IV-1204, (R)—N-[5-(2-Isopropoxy-2-phenylacetyl)-6,6-dimethyl-1,4,5,6-tetrahydropyrrolo[3,4-c]pyrazol-3-yl]-1-(trimethylsilyl)cyclobutanecarboxamide] | ≤ 0.05 µM | ≥ 50%

Row | Structure (SMILES) | Ki (CDK2) | IC50 [1] | inhibition in vivo at 0.01 % [2]
3 | CC1(C)c2[nH]nc(NC(=O)C3([Si](C)(C)C)CCC3)c2CN1C(=O)[C@H](OC(F)(F)F)c1ccccc1 [IV-1184, (R)—N-{6,6-Dimethyl-5-[2-phenyl-2-(trifluoromethoxy)acetyl]-1,4,5,6-tetrahydropyrrolo[3,4-c]pyrazol-3-yl}-1-(trimethylsilyl)cyclobutanecarboxamide] | ≥ 1 µM | ≤ 0.05 µM | ≥ 50%
